System: M. tuberculosis strains resistant to 1
Type: cell-based

Compound | Cross resistance with strains resistant to 1
CC(C)(C)c1cc(NC(=O)NC2C3CC4CC(C3)CC2C4)no1 (centres unmarked) [Compound 46, 1-(2-adamantyl)-3-(5-t-butylisoxazol-3-yl)urea] | confirmed as on target against MmpL3
O=C(Nc1nnc(C2CCC2)o1)NC1C2CC3CC(C2)CC1C3 (centres unmarked) [Compound 51, 1-(2-adamantyl)-3-(5-cyclobutyl-1,3,4-oxadiazol-2-yl)urea] | confirmed as on target against MmpL3

Reference: paper PMC3780361 (Bioorganic & medicinal chemistry, 2013)
